# Results from US20260216144A1, “TARGETING MB2 OF THE MYC ONCOGENE AND ITS INTERACTION WITH TRRAP IN CANCER” (priority 2019, published 2026).
# Target: MYC:TRRAP interaction (Homo sapiens, UniProt P01106+Q9Y4A5)
# Assay: MYC:TRRAP in-cell luminescence complementation assay (NanoBiT; SmB-MYC 1-190 and TRRAP 2033-2283-LgB in HeLa cells)
# Assay type: cell-based
# Conditions: not given
# Procedure: HeLa cells plated on Greiner 96-well TC-rated white plates with clear bottoms were used for the following measurements. Reverse transfections were carried out using LipoD293™ before cells were plated. A bluescript KS' plasmid (Addgene) was used as carrier DNA for transfections, and a pcDNA3.1 EGFP plasmid (ThermoFisher) was used as a fluorescence reporter. White light-reflecting film (USA Scientific) was used to cover the bottom of the plates for luminescence measurements. Black light-absorbing film was used to cover the top of the plates for fluorescence measurements. All measurements were taken on a SpectraMax i3 instrument (Molecular Devices).
# Transfections were carried out with increasing DNA amounts (1-100 ng per well) of a CMV-driven LgB plasmid and SmB in excess or vice-versa. Background luminesce for the usable range and the amount of DNA needed for vast excess of LgB or SmB were noted. Next, complementation with vast excess either LgB or SmB was used to determine the expression of each of the indicated MYC and TRRAP constructs for a range of DNA amounts per well: 10-100 ng. An optimal ratio of DNA to equalize the expression of each MYC and TRRAP pair was calculated. Then, signal-to-noise ratios were calculated for the indicated MYC and TRRAP pairs, and the pair with the highest ratio was chosen. Finally, the chosen pair was used to determine the optimal DNA transfection mixture. It was determined to be 6.7 ng of a plasmid with a MYC construct, 60 ng of a plasmid with a TRRAP construct and 33.3 ng of the pcDNA 3.1 EGFP plasmid, for each well in a 96-well plate. Unless otherwise indicated, these were the ratios of DNA transfected for this type of assay.
# HeLa cells were transfected as above using LipoD293™ with a mixture of SmB-MYC 1-190, TRRAP 2033-2283-LgB, and EGFP in CMV-driven plasmids at the same optimized ratio described above. Two days post-transfection, the media in each well was replaced with fresh media containing each compound from the NCI's sets at 25 μM. Cells were incubated for 2 h with each compound, and luminescence and fluorescence measurements were recorded for each well. Changes in luminescence were normalized to fluorescence. The following pre-plated compound sets were obtained from the NCI/DTP chemical repository and used for this screen:
# These chemical sets were used to discover novel small-molecule inhibitors of the MYC:TRRAP complex. SmB-MYC 1-190, TRRAP 2033-2283-LgB, and EGFP were transfected into HeLa cells. Two days post-transfection, compounds were added to the media at 25 μM and cells were incubated for 2h. Luminescence and fluorescence were recorded for each well containing one of the compounds. Changes in luminescence measurements were normalized to fluorescence measurements.
# Afterwards, only molecules that reduced luminescence levels to <50% RLU were considered. This set of 46 compounds were incubated at 10 μM with vector-expressing cells. Luminescence complementation was measured and repeated in triplicate measurements. In addition, HeLa cells expressing LgB and SmB alone were incubated with the same compounds to rule out potentially artificial results due to inhibition of luciferase or its complementation. Molecules that induces any significant reduction in luminescence (<0.6) during this control assay were not considered further. Of 2947 molecules, 17 were chosen for further testing and ordered from the NCI/DTP Open Chemical Repository. FIG. 16 describes these chosen compounds.
# Using the luminescence assay above as a readout for the MYC:TRRAP interaction, we used a robotic liquid handler to evaluate 2987 additional compounds (25 μM). All primary hits were counter-screened for any activity against the luciferase enzyme itself and for any effects on the expression of the fusion proteins. We set a threshold of 50% inhibition to consider compounds further. Only 17 out of 2987 passed all these criteria (0.6%). […]
# MYC:TRRAP interaction, sequence (P01106 16-205): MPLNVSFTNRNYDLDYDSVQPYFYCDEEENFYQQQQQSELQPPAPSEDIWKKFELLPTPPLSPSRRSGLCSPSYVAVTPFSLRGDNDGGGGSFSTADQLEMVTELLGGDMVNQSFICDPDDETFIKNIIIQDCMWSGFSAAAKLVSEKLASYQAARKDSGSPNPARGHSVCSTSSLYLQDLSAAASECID
# MYC:TRRAP interaction, sequence (Q9Y4A5 2051-2301): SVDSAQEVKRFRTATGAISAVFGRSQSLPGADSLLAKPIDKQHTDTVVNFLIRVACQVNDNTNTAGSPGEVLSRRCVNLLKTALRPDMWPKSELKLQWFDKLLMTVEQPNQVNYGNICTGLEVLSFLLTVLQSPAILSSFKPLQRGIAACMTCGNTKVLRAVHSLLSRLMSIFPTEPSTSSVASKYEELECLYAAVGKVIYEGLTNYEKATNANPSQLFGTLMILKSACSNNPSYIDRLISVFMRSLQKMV
row,SMILES,% Inhibition 10 uM [%]
1,"CC[C@H](C)[C@@H]1/N=C(\O)[C@@H](NC(=O)c2c3nc4c(C(=O)N[C@@H]5/C(O)=N/[C@@H](C(C)C)C(=O)N6CCC[C@H]6C(=O)N(C)CC(=O)N(C)[C@@H](C(C)C)C(=O)O[C@@H]5C)ccc(C)c4oc-3c(C)c(=O)c2N)[C@@H](C)OC(=O)[C@H](C(C)C)N(C)C(=O)CN(C)C(=O)[C@@H]2CCCN2C1=O [Compound 20, 2-amino-1-N-[(3S,6S,7R,10S, 16S)-3-[(2S)-butan-2-yl]-7,11,14-trimethyl-2,5,9,12,15-pentaoxo-10-propan-2-yl-8-oxa-1,4,11,14-tetrazabicyclo [14.3.0]nonadecan-6-yl]-4,6-dimethyl-3-oxo-9-N-[(3S,6S,7R, 10S,16S)-7,11,14-trimethyl-2,5,9,12,15-pentaoxo-3,10-di(propan-2-yl)-8-oxa-1,4,11,14-tetrazabicyclo [14.3.0]nonadecan-6-yl]phenoxazine-1,9-dicarboxamide]",41.4

# Same assay, conditions: Table 1; 46 primary hits at 10 uM; HeLa cells; triplicate measurements
row,SMILES,% Inhibition 10 uM [%]
1,"CN(C)c1ccc(C=C2C=C(c3ccc4c(c3)CCCC4)OC2=O)cc1 (stereo in doubt) [Compound 46, (3Z)-3-[[4-(dimethylamino)phenyl]methylidene]-5-(5,6,7,8-tetrahydro-naphthalen-2-yl)furan-2-one]",96.48
2,"Nc1ccc(N=Nc2ccccc2Cl)c(N)n1 [Compound 1, 3-[(2-chlorophenyl)diazenyl] pyridine-2,6-diamine]",14.38
3,"Cc1cc(O)c(C(C)C)cc1C1(c2cc(C(C)C)c(O)cc2C)OC(=O)c2ccccc21 [Compound 2, 3,3-bis(4-hydroxy-2-methyl-5-propan-2-ylphenyl)-2-benzofuran-1-one]",11.16
4,"Nc1ccc(/N=N/c2ccccc2)c2ccccc12 [Compound 3, 4-phenyldiazenylnaph-thalen-1-amine]",22.41
5,"N=c1ccc(/N=N/c2ccc(O)cc2)c(N)[nH]1 [Compound 4, 4-[(2,6-diaminopyridin-3-yl)diazenyl]phenol]",30.35
6,"Cc1ccc(NC(=O)c2cc3ccccc3c(/N=N/c3ccccc3O)c2O)c(C)c1 [Compound 5, N-(2,4-dimethylphenyl)-3-hydroxy-4-[(2-hydroxyphenyl)diazenyl] naphthalene-2-carboxamide]",37.24
7,"COc1ccc(OC)c(-c2cc(=O)c3c(OC)c(OC)c(OC)c(OC)c3o2)c1 [Compound 6, 2-(2,5-dimethoxyphenyl)-5,6,7,8-tetramethoxy-chromen-4-one]",33.66
8,"COC(=O)c1c[nH]c2c1-c1cc(C(=O)OCc3ccccc3)n(S(=O)(=O)c3ccc(C)cc3)c1C(=O)C2=O [Compound 7, 2-O-benzyl 8-O-methyl 3-(4-methylphenyl) sulfonyl-4,5-dioxo-6H-pyrrolo[3,2-e]indole-2,8-dicarboxylate]",16.02
9,"COC(=O)c1cc(-c2c[nH]cc2C(=O)OCc2ccccc2)cn1S(=O)(=O)c1ccc(C)cc1 [Compound 8, methyl 1-(4-methylphenyl) sulfonyl-4-(4-phenylmethoxycar-bonyl-1H-pyrrol-3-yl)pyrrole-2-carboxylate]",33.32
10,"Cc1ccc(Cl)cc1NC(=O)c1cc2ccccc2cc1O [Compound 9, N-(5-chloro-2-methylphenyl)-3-hydroxy-naphthalene-2-carboxamide]",48.59
11,"Cc1cc(N(C)C)ccc1/N=N/c1ccc2ncccc2c1 [Compound 12, N,N,3-trimethyl-4-(quinolin-6-yldiazenyl)aniline]",58.86
12,"C/N=c1\sc2c(n1C)C(=O)c1ccccc1C2=O [Compound 13, 3-methyl-2-methyliminobenzo [f][1,3] benzothiazole-4,9-dione]",68.66
13,"COC1=C(N)C(=O)c2nc(-c3nc(C(=O)O)c(C)c(-c4ccc(OC)c(OC)c4O)c3N)ccc2C1=O [Compound 14, 5-amino-6-(7-amino-6-methoxy-5,8-dioxoquinolin-2-yl)-4-(2-hydroxy-3,4-dimethoxyphenyl)-3-methylpyridine-2-carboxylic acid]",40.78
14,"CCN(CC)Cc1cc(/N=N/c2c(O)ccc3c(/N=N/c4ccc(O)c(CN(CC)CC)c4)c(O)ccc23)ccc1O.Cl [Compound 15, 1,5-bis[[3-(diethyl-aminomethyl)-4-hydroxyphenyl]diazenyl] naphthalene-2,6-diol; hydrochloride]",57.02
15,"Cc1nc(/N=N/c2ccccc2)[nH]c1/N=N/c1ccccc1 [Compound 16, (5-methyl-2-phenyldiazenyl-1H-imidazol-4-yl)-phenyldiazene]",62.4
16,"CC(=O)OC(C)C1C2=C(C(=O)C[C@]1(C)O)C(=O)c1c(ccc(-c3ccc4c(c3O)C(=O)C3=C(C4=O)C(C(C)OC(C)=O)[C@@](C)(O)CC3=O)c1O)C2=O (stereo partly drawn) [Compound 17, 1-[(2S)-6-[(6S)-5-(1-acetyloxyethyl)-1,6-dihydroxy-6-methyl-8,9,10-trioxo-5,7-dihydroanthracen-2-yl]-2,5-dihydroxy-2-methyl-4,9,10-trioxo-1,3-dihydroanthracen-1-yl]ethyl acetate]",46.81
17,"Cc1ccc2c(c1)C(=C(C#N)C#N)CCN2 [Compound 18, 2-(6-methyl-2,3-dihydro-1H-quinolin-4-ylidene)propanedi-nitrile]",57.21
18,"N#C/C(S)=N/c1ccc(F)cc1 [Compound 19, 1-cyano-N-(4-fluorophenyl) methanethioamide]",92.01
19,"COC(=O)c1cc2c(n1S(=O)(=O)c1ccc(C)cc1)C(=O)C(=O)c1[nH]cc(C(=O)OCc3ccccc3)c1-2 [Compound 21, 8-O-benzyl 2-O-methyl 3-(4-methylphenyl) sulfonyl-4,5-dioxo-6H-pyrrolo[3,2-e]indole-2,8-dicarboxylate]",39.88
20,"COc1cc(O)c2c(c1)C(=O)c1cc3c(c(O)c1C2=O)C(OC1OC(C)C(O)C(O)C1OC)C(OC)C(C)(O)C3=O (stereo not drawn) [Compound 22, 4-(4,5-dihydroxy-3-methoxy-6-methyloxan-2-yl)oxy-2,5,7-trihydroxy-3,9-dimethoxy-2-methyl-3,4-dihydrotetracene-1,6,11-trione]",52.48
21,"COc1c2c(c(CC=C(C)C)c3oc(=O)c(-c4ccc(O)cc4)c(O)c13)OC(C)(C)C=C2 [Compound 24, 6-hydroxy-7-(4-hydroxyphenyl)-5-methoxy-2,2-dimethyl-10-(3-methylbut-2-enyl)pyrano[3,2-g]chromen-8-one]",41.01

# Same assay, conditions: Table 1; 46 primary hits at 10 uM; HeLa cells; triplicate measurements; 10 µM
row,SMILES,% Inhibition 10 uM [%]
1,"N=C1C=C(N)C(=O)c2nc(O)ccc21 [Compound 11, 7-amino-5-imino-1H-quinoline-2,8-dione]",46.89
2,"COC(=O)c1nc(-c2ccc3c(n2)C(=O)C(N)=C(OC)C3=O)c(N)c(-c2ccc(OC)c(OC)c2O)c1C [Compound 23, methyl 5-amino-6-(7-amino-6-methoxy-5,8-dioxoquinolin-2-yl)-4-(2-hydroxy-3,4-dimethoxyphenyl)-3-methylpyridine-2-carboxylate]",50.17

# Same assay, conditions: Table 1; 46 primary hits at 10 uM; HeLa cells; triplicate measurements; listed as 29, 10 µM
row,SMILES,% Inhibition 10 uM [%]
1,"COC(=O)c1nc(-c2ccc3c(n2)C(=O)C(N)=C(OC)C3=O)c(N)c(-c2ccc(OC)c(OC)c2O)c1C [Compound 23, methyl 5-amino-6-(7-amino-6-methoxy-5,8-dioxoquinolin-2-yl)-4-(2-hydroxy-3,4-dimethoxyphenyl)-3-methylpyridine-2-carboxylate]",60.1

# Same assay, conditions: Table 1; 46 primary hits at 10 uM; HeLa cells; triplicate measurements; listed as 43, 10 µM
row,SMILES,% Inhibition 10 uM [%]
1,"N=C1C=C(N)C(=O)c2nc(O)ccc21 [Compound 11, 7-amino-5-imino-1H-quinoline-2,8-dione]",57.34

# Same assay, conditions: Table 2; compounds with >80% similarity to compound 10 (NSC657456); 10 uM
row,SMILES,% Inhibition 10 uM [%]
1,"N#CC(=C/N=C(S)/N=N/c1c(O)[nH]c2ccccc12)c1nc2ccccc2s1 (stereo in doubt) [Compound 1030, 1-[(E)-2-(1,3-benzothiazol-2-yl)-2-cyanoethenyl]-3-[(2-hydroxy-1H-indol-3-yl)imino] thiourea]",48.26
